Data set [1] concerns Proteus vulgaris KY4277 ATCC6897. As to the kind of experiment: MIC, agar dilution method, pH 8.0. Type of data set: cell-based. Conditions: ATCC6897; pH 8.0; Proteus vulgaris KY4277; read-out: Minimum inhibition concentration (MIC), PV. As for the experimental part:
(§1) Measurement was carried out according to the agar dilution method, using a medium of pH 8.0, or the Japanese Antibiotic Medicament Standard, using a medium of pH 7.2 Units are in mcg/ml.

Data set [2] deals with Shigella sonnei KY4281 ATCC9290. As to the kind of experiment: MIC, agar dilution method, pH 8.0. The data set is classed as cell-based. Conditions: ATCC9290; pH 8.0; Shigella sonnei KY4281; read-out: Minimum inhibition concentration (MIC), SS. How it is done: as §1
(In general: In agar dilution, organisms are placed on agar that contains the substance at set levels.)

Data set [3] deals with Salmonella typhosa KY4278 ATCC9992. As to the kind of experiment: MIC, agar dilution method, pH 8.0. Type of data set: cell-based. Conditions: Salmonella enterica, pH 8, read-out: Minimum inhibition concentration (MIC), ST. As for the experimental part:
as §1
S.T.: Salmonella typhosa KY4278 ATCC9992

The subject of data set [4] is Klebsiella pneumoniae KY4275 ATCC10031. Nature of the data set: MIC, agar dilution method, pH 8.0. The note with it: ATCC10031; pH 8.0; Klebsiella pneumoniae KY4275; read-out: Minimum inhibition concentration (MIC), KP. The data set is classed as cell-based. As for the experimental part: as §1
K.P.: Klebsiella pneumoniae KY4275 ATCC10031.

In a further data set the test system is Bacillus subtilis KY4273. Nature of the data set: MIC, agar dilution method, pH 8.0. Type of data set: cell-based. Conditions: pH 8.0; Bacillus subtilis KY4273; read-out: Minimum inhibition concentration (MIC), BS. How it is done:
as §1
B.S.: Bacillus subtilis KY4273

Data set [5] can be described thus: Stability in alkaline aqueous conditions. Type of data set: physicochemical. Conditions: for Stability in aqueous solution: pH 10, room temperature, within one hour. As for the experimental part:
The stability of 4-N-acylfortimicin B derivatives in aqueous alkaline conditions is poor. […] Therefore, purification of these compounds under basic conditions (for example, column chromatography with Amberlite CG-50, eluting with aqueous ammonia) is not practical.
In contrast with the instability of 4-N-acylfortimicin B derivatives, 4-N-alkylfortimicin B derivatives are so stable that no decomposition occurs even in aqueous barium hydroxide solution at reflux temperature for 18 hours. Therefore, in the case of 4-N-alkylfortimicin B, any substituents can be introduced at 4-N-position of fortimicin B, even though such substituents can not be introduced as the acyl type to such position due to the aforementioned instability.

Data set [6] concerns Staphylococcus aureus KY4279 ATCC6538P. Nature of the data set: MIC, agar dilution method, pH 8.0. The note with it: pH 8.0, Staphylococcus aureus KY4279, read-out: Minimum inhibition concentration (MIC), SA. The data set is classed as cell-based. How it is done:
as §1
S.A.: Staphylococcus aureus KY4279 ATCC6538P

Data set [7] has as its system Eschericia coli KY4271 ATCC26. As to the kind of experiment: MIC, agar dilution method, pH 8.0. Conditions: Escherichia coli, ATCC26; pH 8.0; E. coli KY4271; read-out: Minimum inhibition concentration (MIC), EC. The data set is classed as cell-based. As for the experimental part:
as §1
E.C.: Eschericia coli KY4271 ATCC26

Values after ≈ are worked out from the molar mass of the structure shown.

For `CO[C@H]1[C@@H](O)[C@H](N)[C@@H](O[C@H]2O[C@H]([C@H](C)N)CC[C@H]2N)[C@H](O)[C@@H]1N(C)C(=O)[C@@H](O)CCN` [Compound 14, 4-N-[L-(-)-γ-amino-α-hydroxybutyryl]fortimicin B], the MIC turned out to be 10 µg/mL (≈ 22.2 µM) in data set [1]; 20 µg/mL (≈ 44.5 µM) in data set [2]; 2.5 µg/mL (≈ 5.56 µM) in data set [3]; 5 µg/mL (≈ 11.1 µM) in data set [4]; 5 µg/mL (≈ 11.1 µM) in the data set with Bacillus subtilis KY4273; 0.63 µg/mL (≈ 1.4 µM) in data set [6]. Besides, the MIC in data set [7] is 0.63 µg/mL (≈ 1.4 µM). In addition, the “Stability in aqueous solution” value in data set [5] is reported as “almost completely decomposed”.

As to `CO[C@H]1[C@@H](O)[C@H](N)[C@@H](O[C@H]2O[C@H]([C@H](C)N)CC[C@H]2N)[C@H](O)[C@@H]1N(C)C(=O)CCCCN` [Compound 11, 4-N-(δ-amino-n-valeryl)fortimicin B], the “Stability in alkali condition (MIC medium)” value in data set [5] (pH 8.0) is reported as “unstable”. Further, the “Stability in aqueous solution” value in data set [5] is given as “almost completely decomposed”.

The values above are taken from patent US4220755A, “Fortimicin B derivatives and process for production thereof” (Abbott Laboratories, priority 1976, dated 1980).
